Test results from patent US20160015730A1, “Treatment of Pulmonary Hypertension with Carbonic Anhydrase Inhibitors” (priority 2007, published 2016).

Tests used:
[1] = tested on: patient with pulmonary hypertension; assay: Example 5 case report: patient with COPD and pulmonary hypertension treated with phentermine and topiramate; format: in vivo, human; settings: topiramate 100 mg daily with phentermine 15 mg daily
Protocol: The fifth patient was a person with obesity, diabetes, hypertension, hypothyroidism, elevated cholesterol, COPD, and pulmonary hypertension. […] They had stopped smoking 1PPD about 10 years previously. Their baseline medications were verapamil 240 mg daily, losartan-HCTZ 50-12.5 daily, levothyroxine 0.125 mg daily, Pulmicort […] 2 puffs twice daily, Foradil powder […] twice daily, metformin 500 mg twice daily, atorvastatin 10 mg daily, fluticasone nasal spray 50 mcg 2 puffs daily and vitamins. They were short of breath with minimal exertion. They were 67″ tall, weight 228 lbs, BMI 36, initial BP 138/70.
They were treated with phentermine 15 mg daily and topiramate 100 mg daily. Three years into treatment, their fasting glucose is 106 off metformin compared with 114 on metformin at baseline, their blood pressure is 115/60 on valsartan 80 mg daily and diltiazem CD 120 mg daily (changed from verapamil because of constipation). Their weight has been stable for six months in the low 180's.

[2] = tested on: patient with elevated pulmonary artery pressure (pulmonary hypertension); assay: Example 1 case report: patient with mildly elevated pulmonary artery pressure treated with bupropion and topiramate; format: in vivo, human
Protocol: They were 66″ tall, weight 282 lbs, BMI 46, initial BP 118/80. They had 2+ edema of both ankles, clear lungs, and a systolic murmur along the left sternal border, grade II/VI.
They were started on atorvastatin 10 mg daily as well as bupropion 150 mg daily and topiramate 200 mg daily along with a low fat, low carbohydrate diet and exercise. […] They lost weight continuously on the program and 4 months later had lost 20 lbs. […] After six months, the patient temporarily discontinued the medications. Within a few days, even though their weight was the same, their chest pressure and shortness of breath on exertion returned. On resumption of the treatment, the symptoms resolved within a few days.

[3] = tested on: patients with pulmonary hypertension; assay: Summary of the five patients of Examples 1-5; format: in vivo, human
Text: However, the improvement in pulmonary pressures appeared to be independent of weight loss in these patients.

[4] = tested on: patient with probable mild pulmonary hypertension; assay: Example 3 case report: patient with probable mild pulmonary hypertension treated with phentermine and topiramate; format: in vivo, human
Protocol: The third patient was a person with obesity, hypertension, elevated cholesterol, heart murmur and dyspnea on exertion. Their medications were atorvastatin 10 mg daily, captopril 12.5 mg daily, trazodone 50 mg daily, spironolactone 50 mg daily, and bupropion 150 mg daily. They were 64″ tall, weight 319 lbs, BMI 55, initial BP 148/76.
They were treated with phentermine 15 mg daily and topiramate 200 mg daily along with a low fat, low carbohydrate diet and exercise. They were instructed to stop both the spironolactone and captopril since this weight loss treatment results in marked lowering of blood pressure in most patients. […] Blood pressure one week later was 140/86 and weight 317 lbs.

[5] = tested on: patient with pulmonary hypertension; assay: Example 2 case report: patient with pulmonary hypertension treated with phentermine and topiramate; format: in vivo, human; settings: topiramate 200 mg daily with phentermine 15 mg daily
Protocol: The second patient was a person with obesity, hypothyroidism, hypertension, valvular heart disease, elevated cholesterol and depression. Their medications were levothyroxine 50 mcg daily, metoprolol 50 mg daily, venlafaxine 37.5 mg daily, progesterone 100 mg daily, esterified estrogens 1.25 mg daily, and methyltestosterone 2.5 mg daily. They were 63″ tall, weight 178 lbs, BMI 32, initial BP 120/78. They had trace edema of both ankles and a systolic murmur of I/VI along the left sternal border. […] A comment on the report stated that this was a slight increase in pulmonary pressure compared with an echocardiogram taken seven months earlier.
They were treated with phentermine 15 mg daily and topiramate 200 mg daily along with a low fat, low carbohydrate diet and exercise. Metoprolol was discontinued after four months due to low blood pressure. Eight months after treatment started, their weight was 165 lbs, BP was 122/76, and they had no edema. […] No MR was seen.

[6] = tested on: patient with known pulmonary hypertension; assay: Example 4 case report: patient with known pulmonary hypertension and sleep apnea treated with bupropion, topiramate and phentermine; format: in vivo, human; settings: topiramate 100 mg daily with bupropion 300 mg
Protocol: The fourth patient was a person with obesity, sleep apnea on CPAP, known pulmonary hypertension with PA pressure estimated at 76 mm Hg by echocardiogram, valvular heart disease (mild-moderate tricuspid and mitral regurgitation), depression and hypertension. They smoked just under half pack of cigarettes per day and was a CO2 retainer by ABG's with a PCO2 of 54 mm Hg on room air. They were short of breath with minimal exertion. Their baseline medications were furosemide 80 mg daily, potassium chloride 20 mEq daily, lisinopril 10 mg daily, carvedilol 25 mg BID, escitalopram 10 mg daily, alprazolam 0.5 mg TID, and nightly oxygen. They were 68″ tall, weight 284 lbs, BMI 43½, initial BP 122/76. They had 1+ edema of both lower legs and was short of breath on exertion.
They were treated with aspirin 81 mg coated daily, bupropion 300 mg daily, topiramate 100 mg daily, phentermine 5 mg daily, along with a low fat, low carbohydrate diet and light exercise. By the first 4 weeks of follow-up, they had lost 17 lbs and was breathing much better. […] They were still smoking cigarettes occasionally. They had lost 38 lbs. Their blood pressure was 110/70 on only lisinopril 10 mg daily. Furosemide and carvedilol had been gradually discontinued due to improved edema, blood pressure, and breathing. An echocardiogram performed at three months into the program was mostly unchanged from their prior echocardiogram except that the pulmonary artery pressure was reported as normal. This change was consistent with their clinical picture.

[7] = tested on: patients exhibiting similar symptoms with respect to pulmonary hypertension; assay: Examples 12-17: procedures of Examples 2 through 5 repeated with zonisamide or acetazolamide substituted for topiramate; format: in vivo, human
[8] = tested on: patient exhibiting similar symptoms with respect to pulmonary hypertension; assay: Examples 6-11: procedure of Example 1 repeated with zonisamide or acetazolamide substituted for topiramate; format: in vivo, human
Type V phosphodiesterase = Type V phosphodiesterase (Homo sapiens, UniProt O76074); settings: comparison with avanafil (and sildenafil); cited from earlier work

SMILES: CC1(C)O[C@@H]2[C@@H](CO[C@@]3(COS(N)(=O)=O)OC(C)(C)O[C@@H]23)O1 [topiramate]
- fasting glucose ([1]; person, three years, off metformin, baseline 114 on metformin): 106
- pulmonary pressures (echocardiogram) ([1]; 30 months into treatment, baseline 45-50 mm Hg): normal
- symptoms ([1]; exercising more without shortness of breath): symptomatically much better
- weight ([1]; three years, stable for six months, baseline 228 lbs): low 180's
- blood pressure ([1]; three years, on valsartan 80 mg and diltiazem CD 120 mg daily, baseline 138/70): 115/60
- chest pressure and shortness of breath on exertion after discontinuing the medications ([2]; medications temporarily discontinued after six months, within a few days, weight the same): returned
- exercise tolerance ([2]; person, topiramate 200 mg daily with bupropion 150 mg daily, atorvastatin 10 mg daily, diet and exercise, two weeks after start): markedly improved
- symptoms on resumption of the treatment ([2]; resumption of topiramate 200 mg/bupropion 150 mg treatment, within a few days): resolved
- chest pressure and shortness of breath on exertion ([2]; topiramate 200 mg daily with bupropion 150 mg daily, atorvastatin 10 mg daily, two weeks after start): gone
- weight lost ([2]; topiramate 200 mg daily with bupropion 150 mg daily, atorvastatin, diet and exercise, 4 months, baseline 282 lbs): 20 lbs
- pulmonary pressures (echocardiogram) ([2]; topiramate 200 mg daily with bupropion 150 mg daily, 2 weeks after start of treatment, baseline 36 mm Hg): normal
- symptomatic improvement ([3]; all patients): symptomatic improvement in all patients
- improvement in pulmonary hypertension ([3]; topiramate with phentermine and/or bupropion, diet and weight loss program): surprising improvement
- echocardiogram findings of pulmonary hypertension ([4]; person, topiramate 200 mg daily with phentermine 15 mg daily (bupropion 150 mg daily at baseline), three weeks, before significant weight loss, baseline probable mild pulmonary hypertension): no findings of pulmonary hypertension
- weight ([4]; topiramate 200 mg daily with phentermine 15 mg daily, four weeks, baseline 319 lbs): 317 lbs
- blood pressure ([4]; topiramate 200 mg daily with phentermine 15 mg daily, four weeks, spironolactone and captopril stopped, baseline 148/76): 140/86
- weight ([5]; person, diet and exercise, eight months, baseline 178 lbs): 165 lbs
- edema ([5]; eight months, baseline trace edema of both ankles): no edema
- BP ([5]; eight months, metoprolol discontinued, baseline 120/78): 122/76
- pulmonary artery pressure (echocardiogram) ([5]; nine months on treatment, baseline 39 mm Hg): 33 mm Hg
- mitral regurgitation (MR, echocardiogram) ([5]; nine months on treatment, baseline mild MR): No MR
- tricuspid regurgitation (echocardiogram) ([5]; nine months on treatment, baseline moderate TR): mild
- weight lost ([6]; person, phentermine 5 mg, aspirin 81 mg daily, diet, light exercise, first 4 weeks, baseline 284 lbs): 17 lbs
- blood pressure ([6]; phentermine 5 mg daily, four months, on only lisinopril 10 mg daily, baseline 122/76): 110/70
- pulmonary artery pressure (echocardiogram) ([6]; phentermine 5 mg daily, three months, baseline estimated 76 mm Hg): normal
- breathing ([6]; phentermine 5 mg, aspirin 81 mg daily, first 4 weeks): much better
- weight lost ([6]; phentermine 5 mg, aspirin 81 mg daily, four months): 38 lbs
- clinical status ([6]; phentermine 5 mg, aspirin 81 mg daily, four months, able to exercise normally without shortness of breath): clinically markedly improved

SMILES: NS(=O)(=O)Cc1noc2ccccc12 [zonisamide]
- results relative to Examples 2 through 5 ([7]; 25 mg, 50 mg, and 100 mg zonisamide substituted for topiramate): Substantially the same results
- results relative to Example 1 ([8]; Example 6, 25 mg zonisamide substituted for the topiramate): Substantially the same results
- results relative to Example 1 ([8]; Example 7, 50 mg zonisamide substituted for the topiramate): Substantially the same results
- results relative to Example 1 ([8]; Example 8, 100 mg zonisamide substituted for the topiramate): Substantially the same results

SMILES: CC(=O)Nc1nnc(S(N)(=O)=O)s1 [acetazolamide]
- results relative to Examples 2 through 5 ([7]; 100 mg, 250 mg, and 500 mg acetazolamide substituted for topiramate): Substantially the same results
- results relative to Example 1 ([8]; Example 9, 100 mg acetazolamide substituted for the topiramate): Substantially the same results
- results relative to Example 1 ([8]; Example 10, 250 mg acetazolamide substituted for the topiramate): Substantially the same results
- results relative to Example 1 ([8]; Example 11, 500 mg acetazolamide substituted for the topiramate): Substantially the same results

SMILES: CCCc1nn(C)c2c(=O)[nH]c(-c3cc(S(=O)(=O)N4CCN(C)CC4)ccc3OCC)nc12 [sildenafil]
- potency as phosphodiesterase inhibitor relative to avanafil (Type V phosphodiesterase): approximately twice as potent as avanafil
